Source: PubChem BioAssay AID1963980 (Molecular Pharmacology Branch, DTP, NCI, 2024)

Test system: 475296-252-R-J1-PDC spheroid viability
Test: Anticancer human tumor 475296-252-R-J1-PDC patient-derived rectal carcinoma cell line growth inhibition [PI3K]
Settings: spheroids with HUVEC and MSC; for viability, T/C: stronger effect = lower value
Procedure, shortened: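 Tumor cells were combined with HUVEC and MSCs into spheroids, then dosed with PI3K-inhibitor combinations over half-log ranges capped near clinical Cmax or 10 microM.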

[1] = curve of first compound, second compound 0.0316 µM
[2] = curve of first compound, second compound 0.1 µM
[3] = curve of first compound, second compound 0.316 µM
[4] = curve of first compound, second compound 1 µM
[5] = curve of first compound, second compound 3.16 µM
[6] = curve of first compound, second compound 10 µM
[7] = second compound 0.0316 µM, first compound 0.0316 µM
[8] = second compound 0.0316 µM, first compound 0.1 µM
[9] = second compound 0.0316 µM, first compound 0.316 µM
[10] = second compound 0.0316 µM, first compound 1 µM
[11] = second compound 0.0316 µM, first compound 3.16 µM
[12] = second compound 0.0316 µM, first compound 10 µM
[13] = second compound 0.1 µM, first compound 0.0316 µM
[14] = second compound 0.1 µM, first compound 0.1 µM
[15] = second compound 0.1 µM, first compound 0.316 µM
[16] = second compound 0.1 µM, first compound 1 µM
[17] = second compound 0.1 µM, first compound 3.16 µM
[18] = second compound 0.1 µM, first compound 10 µM
[19] = second compound 0.316 µM, first compound 0.0316 µM
[20] = second compound 0.316 µM, first compound 0.1 µM
[21] = second compound 0.316 µM, first compound 0.316 µM
[22] = second compound 0.316 µM, first compound 1 µM
[23] = second compound 0.316 µM, first compound 3.16 µM
[24] = second compound 0.316 µM, first compound 10 µM
[25] = second compound 1 µM, first compound 0.0316 µM
[26] = second compound 1 µM, first compound 0.1 µM
[27] = second compound 1 µM, first compound 0.316 µM
[28] = second compound 1 µM, first compound 1 µM
[29] = second compound 1 µM, first compound 3.16 µM
[30] = second compound 1 µM, first compound 10 µM
[31] = second compound 3.16 µM, first compound 0.0316 µM
[32] = second compound 3.16 µM, first compound 0.1 µM
[33] = second compound 3.16 µM, first compound 0.316 µM
[34] = second compound 3.16 µM, first compound 1 µM
[35] = second compound 3.16 µM, first compound 3.16 µM
[36] = second compound 3.16 µM, first compound 10 µM
[37] = second compound 10 µM, first compound 0.0316 µM
[38] = second compound 10 µM, first compound 0.1 µM
[39] = second compound 10 µM, first compound 0.316 µM
[40] = second compound 10 µM, first compound 1 µM
[41] = second compound 10 µM, first compound 3.16 µM
[42] = second compound 10 µM, first compound 10 µM
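Also: spheroids exposed to agents for seven days before readout.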

For `Cn1nccc1Nc1nccc(-c2ccn(C(CO)c3ccc(Cl)c(F)c3)c(=O)c2)n1` (stereo not given) + CC(Nc1ncnc2nc[nH]c12)c1cc2cccc(Cl)c2c(=O)n1-c1ccccc1, the IC50 [1] was > 10 µM, the IC50 [2] was > 10 µM and the IC50 [3] was > 10 µM. For the same compound, the IC50 [4] was > 10 µM, the IC50 [5] was > 10 µM and the IC50 [6] was > 10 µM. The viability, T/C [7] was 94.3%, the viability, T/C [8] was 102% and the viability, T/C [9] was 89.8%. For the same compound, the viability, T/C [10] was 92.2%, the viability, T/C [11] was 92.9% and the viability, T/C [12] was 70.7%. For the same compound, the viability, T/C [13] was 90.2%, the viability, T/C [14] was 91.3% and the viability, T/C [15] was 96.1%. For the same compound, the viability, T/C [16] was 86.9%, the viability, T/C [17] was 80.7% and the viability, T/C [18] was 77.4%. It also gave a viability, T/C [19] of 93.4%, a viability, T/C [20] of 95.2% and a viability, T/C [21] of 101%. It also gave a viability, T/C [22] of 92.8%, a viability, T/C [23] of 86.9% and a viability, T/C [24] of 65.5%. For the same compound, the viability, T/C [25] was 97.8%, the viability, T/C [26] was 97.7% and the viability, T/C [27] was 98.5%. It also gave a viability, T/C [28] of 89.2%, a viability, T/C [29] of 93.6% and a viability, T/C [30] of 59.1%. For the same compound, the viability, T/C [31] was 97.4%, the viability, T/C [32] was 96.8% and the viability, T/C [33] was 89.2%. It also gave a viability, T/C [34] of 80.4%, a viability, T/C [35] of 82.2% and a viability, T/C [36] of 59.1%. For the same compound, the viability, T/C [37] was 90.9%, the viability, T/C [38] was 80.6% and the viability, T/C [39] was 91.2%. The viability, T/C [40] was 83.6%, the viability, T/C [41] was 76.4% and the viability, T/C [42] was 54.9%.

With `CC(Nc1ccc2c(c1)OCCn1cc(N3C(=O)OCC3C(F)F)nc1-2)C(N)=O` (stereo not given) the viability, T/C (compound 0.00316 µM) was 98.8% [middle of 8 runs], the viability, T/C (compound 0.01 µM) was 96.9% [middle of 8 runs] and the viability, T/C (compound 0.0316 µM) was 98.1% [middle of 8 runs]. For the same compound, the viability, T/C (compound 0.1 µM) was 96.8% [middle of 8 runs], the viability, T/C (compound 0.316 µM) was 91.3% [middle of 8 runs] and the viability, T/C (compound 1 µM) was 81.1% [middle of 7 runs]. For the same compound, the IC50 (compound alone, run of 06/12/2023) was > 1 µM.

`CC(C)NCC(C(=O)N1CCN(c2ncnc3c2C(C)CC3O)CC1)c1ccc(Cl)cc1` (stereo not given) was tested, and the viability, T/C (compound 0.0316 µM) was 102% [middle of 4 runs], the viability, T/C (compound 0.1 µM) was 105% [middle of 4 runs] and the viability, T/C (compound 0.316 µM) was 89.5% [middle of 4 runs]. For the same compound, the viability, T/C (compound 1 µM) was 76.1% [middle of 4 runs], the viability, T/C (compound 3.16 µM) was 75.5% [middle of 4 runs] and the viability, T/C (compound 10 µM) was 62.3% [middle of 4 runs]. For the same compound, the IC50 (curve of compound) was > 10 µM.

`CC(Cn1ccc(-c2ccc(C#N)c(Cl)c2)n1)NC(=O)c1cc(C(C)O)[nH]n1` (stereo not given) + CC(Nc1ncnc2nc[nH]c12)c1cc2cccc(Cl)c2c(=O)n1-c1ccccc1 was tested, and the IC50 [1] was > 10 µM, the IC50 [2] was > 10 µM and the IC50 [3] was > 10 µM. For the same compound, the IC50 [4] was > 10 µM, the IC50 [5] was > 10 µM and the IC50 [6] was > 10 µM. For the same compound, the viability, T/C [7] was 97.8%, the viability, T/C [8] was 94.9% and the viability, T/C [9] was 96.6%. For the same compound, the viability, T/C [10] was 92.1%, the viability, T/C [11] was 102% and the viability, T/C [12] was 104%. For the same compound, the viability, T/C [13] was 99.1%, the viability, T/C [14] was 98.5% and the viability, T/C [15] was 91.7%. For the same compound, the viability, T/C [16] was 89%, the viability, T/C [17] was 101% and the viability, T/C [18] was 84.1%. It also gave a viability, T/C [19] of 97%, a viability, T/C [20] of 97.8% and a viability, T/C [21] of 94.1%. For the same compound, the viability, T/C [22] was 99.5%, the viability, T/C [23] was 104% and the viability, T/C [24] was 89.7%. It also gave a viability, T/C [25] of 94.4%, a viability, T/C [26] of 94.4% and a viability, T/C [27] of 89.5%. It also gave a viability, T/C [28] of 98.7%, a viability, T/C [29] of 113% and a viability, T/C [30] of 90.2%. It also gave a viability, T/C [31] of 95.1%, a viability, T/C [32] of 95.8% and a viability, T/C [33] of 83.4%. It also gave a viability, T/C [34] of 92.2%, a viability, T/C [35] of 94.5% and a viability, T/C [36] of 96.2%. The viability, T/C [37] was 95%, the viability, T/C [38] was 99.2% and the viability, T/C [39] was 104%. For the same compound, the viability, T/C [40] was 92.3%, the viability, T/C [41] was 95.1% and the viability, T/C [42] was 91.8%.

`C[C@@H](NC(=O)c1ncnc(N)c1Cl)c1ncc(C(=O)Nc2cc(C(F)(F)F)c(Cl)cn2)s1` + Cc1nc(NC(=O)N2CCCC2C(N)=O)sc1-c1ccnc(C(C)(C)C(F)(F)F)c1 was tested, and the IC50 [1] was > 10 µM, the IC50 [2] was > 10 µM and the IC50 [3] was > 10 µM. For the same compound, the IC50 [4] was > 10 µM, the IC50 [5] was > 10 µM and the IC50 [6] was 7.71 µM. The viability, T/C [7] was 97.3%, the viability, T/C [8] was 82.2% and the viability, T/C [9] was 98.4%. The viability, T/C [10] was 97.1%, the viability, T/C [11] was 104% and the viability, T/C [12] was 84.1%. It also gave a viability, T/C [13] of 88.8%, a viability, T/C [14] of 85.3% and a viability, T/C [15] of 109%. The viability, T/C [16] was 91.7%, the viability, T/C [17] was 100% and the viability, T/C [18] was 95.4%. The viability, T/C [19] was 87.7%, the viability, T/C [20] was 90.5% and the viability, T/C [21] was 97%. For the same compound, the viability, T/C [22] was 98.9%, the viability, T/C [23] was 95.6% and the viability, T/C [24] was 79.9%. It also gave a viability, T/C [25] of 82.6%, a viability, T/C [26] of 93.7% and a viability, T/C [27] of 101%. The viability, T/C [28] was 101%, the viability, T/C [29] was 84.9% and the viability, T/C [30] was 63%. It also gave a viability, T/C [31] of 86.2%, a viability, T/C [32] of 79.4% and a viability, T/C [33] of 93.4%. The viability, T/C [34] was 75.9%, the viability, T/C [35] was 79.6% and the viability, T/C [36] was 70.5%. It also gave a viability, T/C [37] of 86.6%, a viability, T/C [38] of 77% and a viability, T/C [39] of 79.5%. For the same compound, the viability, T/C [40] was 69.1%, the viability, T/C [41] was 66.8% and the viability, T/C [42] was 45%.
